# Measurements from PMC12477080, “Polychlorinated biphenyls (PCBs) interact with drug metabolism in vivo” (Archives of Toxicology, 2025).
# Assay: Stability of substrates and metabolites in quality control samples (benchtop, autosampler, freeze-thaw)
# Format: physicochemical
# Conditions: for Autosampler stability (24 h) Av. Accuracy (%): 10° C for 24 hours in the autosampler; for 3x freeze-thaw Av. Accuracy (%): after three freeze-thaw cycles; for Benchtop stability (19 h) Ac. Accuracy (%): room temperature for 19 hours
# Excerpt: The method was validated for intra- and interday accuracy and precision, stability, and matrix effects. […] Validation details are provided in Supplementary Tables 5–7 and supplemental Fig. 3. Glucuronidase/sulfatase digests were used to isolate CYP-specific metabolic activities, reducing interference from polymorphic UDP-glucuronosyltransferase (UGT) and sulfotransferase isoforms.
# Supplemental table 6: Stability of the substrates and metabolites. Quality control samples were left at room temperature for 19 hours (benchtop stability) and at 10° C for 24 hours in the autosampler (autosampler stability) or were measured after three freeze-thaw cycles. Stability samples were measured against a freshly prepared set of calibrators and quality control samples.
smiles,measurement,setting,value
"O=C1Nc2ccc(Cl)cc2[C@@](C#CC2CC2)(C(F)(F)F)O1 [efavirenz, reference compound]",Autosampler stability (24 h) Av. Accuracy (%),"QC conc. 0,63 ng/ml","109,58%"
same,3x freeze-thaw Av. Accuracy (%),"QC conc. 0,63 ng/ml","124,41%"
same,Benchtop stability (19 h) Ac. Accuracy (%),"QC conc. 0,63 ng/ml","92,21%"
same,Autosampler stability (24 h) Av. Accuracy (%),QC conc. 150 ng/ml,"115,3%"
same,3x freeze-thaw Av. Accuracy (%),QC conc. 150 ng/ml,"112,08%"
same,Benchtop stability (19 h) Ac. Accuracy (%),QC conc. 150 ng/ml,"111,5%"
same,Autosampler stability (24 h) Av. Accuracy (%),QC conc. 375 ng/ml,"106,16%"
same,3x freeze-thaw Av. Accuracy (%),QC conc. 375 ng/ml,"107,17%"
same,Benchtop stability (19 h) Ac. Accuracy (%),QC conc. 375 ng/ml,"104,9%"
same,Autosampler stability (24 h) Av. Accuracy (%),"QC conc. 1,25 ng/ml","114,46%"
same,3x freeze-thaw Av. Accuracy (%),"QC conc. 1,25 ng/ml","117,78%"
same,Benchtop stability (19 h) Ac. Accuracy (%),"QC conc. 1,25 ng/ml","102,48%"
same,Autosampler stability (24 h) Av. Accuracy (%),"QC conc. 3,75 ng/ml","114,56%"
same,3x freeze-thaw Av. Accuracy (%),"QC conc. 3,75 ng/ml","111,15%"
same,Benchtop stability (19 h) Ac. Accuracy (%),"QC conc. 3,75 ng/ml","107,06%"
Cn1c(=O)[nH]c2ncn(C)c2c1=O [Paraxanthine],Autosampler stability (24 h) Av. Accuracy (%),QC conc. 10 ng/ml,"96,28%"
same,3x freeze-thaw Av. Accuracy (%),QC conc. 10 ng/ml,"96,57%"
same,Benchtop stability (19 h) Ac. Accuracy (%),QC conc. 10 ng/ml,"89,99%"
same,Autosampler stability (24 h) Av. Accuracy (%),QC conc. 30 ng/ml,"105,74%"
same,3x freeze-thaw Av. Accuracy (%),QC conc. 30 ng/ml,"103,75%"
same,Benchtop stability (19 h) Ac. Accuracy (%),QC conc. 30 ng/ml,"105,38%"
same,Autosampler stability (24 h) Av. Accuracy (%),QC conc. 1200 ng/ml,"105,06%"
same,3x freeze-thaw Av. Accuracy (%),QC conc. 1200 ng/ml,"100,61%"
same,Benchtop stability (19 h) Ac. Accuracy (%),QC conc. 1200 ng/ml,"103,5%"
same,Autosampler stability (24 h) Av. Accuracy (%),QC conc. 3000 ng/ml,"93,91%"
same,3x freeze-thaw Av. Accuracy (%),QC conc. 3000 ng/ml,"92,32%"
same,Benchtop stability (19 h) Ac. Accuracy (%),QC conc. 3000 ng/ml,"94,2%"
"COCCc1ccc(OCC(O)CNC(C)C)cc1 (stereo not shown) [metoprolol, reference compound]",Autosampler stability (24 h) Av. Accuracy (%),"QC conc. 0,5 ng/ml","105,36%"
same,3x freeze-thaw Av. Accuracy (%),"QC conc. 0,5 ng/ml","109,56%"
same,Benchtop stability (19 h) Ac. Accuracy (%),"QC conc. 0,5 ng/ml","106,29%"
same,Autosampler stability (24 h) Av. Accuracy (%),"QC conc. 0,25 ng/ml","105,01%"
same,3x freeze-thaw Av. Accuracy (%),"QC conc. 0,25 ng/ml","99,7%"
same,Benchtop stability (19 h) Ac. Accuracy (%),"QC conc. 0,25 ng/ml","92,77%"
same,Autosampler stability (24 h) Av. Accuracy (%),QC conc. 60 ng/ml,"111,39%"
same,3x freeze-thaw Av. Accuracy (%),QC conc. 60 ng/ml,"105,26%"
same,Benchtop stability (19 h) Ac. Accuracy (%),QC conc. 60 ng/ml,"110,41%"
same,Autosampler stability (24 h) Av. Accuracy (%),QC conc. 150 ng/ml,"100,37%"
same,3x freeze-thaw Av. Accuracy (%),QC conc. 150 ng/ml,"98,84%"
same,Benchtop stability (19 h) Ac. Accuracy (%),QC conc. 150 ng/ml,"102,76%"
same,Autosampler stability (24 h) Av. Accuracy (%),"QC conc. 1,5 ng/ml","112,83%"
same,3x freeze-thaw Av. Accuracy (%),"QC conc. 1,5 ng/ml","103,63%"
same,Benchtop stability (19 h) Ac. Accuracy (%),"QC conc. 1,5 ng/ml","111,4%"
"Cc1cccc(Nc2ccncc2S(=O)(=O)NC(=O)NC(C)C)c1 [torsemide, reference compound]",Autosampler stability (24 h) Av. Accuracy (%),QC conc. 1 ng/ml,"105,13%"
same,3x freeze-thaw Av. Accuracy (%),QC conc. 1 ng/ml,"102,74%"
same,Benchtop stability (19 h) Ac. Accuracy (%),QC conc. 1 ng/ml,"97,46%"
same,Autosampler stability (24 h) Av. Accuracy (%),QC conc. 2 ng/ml,"108,32%"
same,3x freeze-thaw Av. Accuracy (%),QC conc. 2 ng/ml,"105,85%"
same,Benchtop stability (19 h) Ac. Accuracy (%),QC conc. 2 ng/ml,"107,17%"
same,Autosampler stability (24 h) Av. Accuracy (%),QC conc. 6 ng/ml,"108,92%"
same,3x freeze-thaw Av. Accuracy (%),QC conc. 6 ng/ml,"106,12%"
same,Benchtop stability (19 h) Ac. Accuracy (%),QC conc. 6 ng/ml,"107,51%"
same,Autosampler stability (24 h) Av. Accuracy (%),QC conc. 240 ng/ml,"109,92%"
same,3x freeze-thaw Av. Accuracy (%),QC conc. 240 ng/ml,"103,96%"
same,Benchtop stability (19 h) Ac. Accuracy (%),QC conc. 240 ng/ml,"108,15%"
same,Autosampler stability (24 h) Av. Accuracy (%),QC conc. 600 ng/ml,"97,91%"
same,3x freeze-thaw Av. Accuracy (%),QC conc. 600 ng/ml,"96,67%"
same,Benchtop stability (19 h) Ac. Accuracy (%),QC conc. 600 ng/ml,"99,27%"
COCC(O)c1ccc(OCC(O)CNC(C)C)cc1 (stereo not shown) [OH-metoprolol],Autosampler stability (24 h) Av. Accuracy (%),"QC conc. 0,5 ng/ml","101,05%"
same,3x freeze-thaw Av. Accuracy (%),"QC conc. 0,5 ng/ml","95,27%"
same,Benchtop stability (19 h) Ac. Accuracy (%),"QC conc. 0,5 ng/ml","90,1%"
same,Autosampler stability (24 h) Av. Accuracy (%),"QC conc. 0,25 ng/ml","90,24%"
same,3x freeze-thaw Av. Accuracy (%),"QC conc. 0,25 ng/ml","85,17%"
same,Benchtop stability (19 h) Ac. Accuracy (%),"QC conc. 0,25 ng/ml","81,14%"
same,Autosampler stability (24 h) Av. Accuracy (%),QC conc. 60 ng/ml,"97,01%"
same,3x freeze-thaw Av. Accuracy (%),QC conc. 60 ng/ml,"91,98%"
same,Benchtop stability (19 h) Ac. Accuracy (%),QC conc. 60 ng/ml,"95,47%"
same,Autosampler stability (24 h) Av. Accuracy (%),QC conc. 150 ng/ml,"88,29%"
same,3x freeze-thaw Av. Accuracy (%),QC conc. 150 ng/ml,"87,96%"
same,Benchtop stability (19 h) Ac. Accuracy (%),QC conc. 150 ng/ml,"88,26%"
same,Autosampler stability (24 h) Av. Accuracy (%),"QC conc. 1,5 ng/ml","96,56%"
same,3x freeze-thaw Av. Accuracy (%),"QC conc. 1,5 ng/ml","95,33%"
same,Benchtop stability (19 h) Ac. Accuracy (%),"QC conc. 1,5 ng/ml","94,57%"
OCc1ncc2n1-c1ccc(Cl)cc1C(c1ccccc1F)=NC2 [1-OH-midazolam],Autosampler stability (24 h) Av. Accuracy (%),"QC conc. 0,2 ng/ml","102,59%"
same,3x freeze-thaw Av. Accuracy (%),"QC conc. 0,2 ng/ml","108,6%"
same,Benchtop stability (19 h) Ac. Accuracy (%),"QC conc. 0,2 ng/ml","82,15%"
same,Autosampler stability (24 h) Av. Accuracy (%),"QC conc. 0,6 ng/ml","107,25%"
same,3x freeze-thaw Av. Accuracy (%),"QC conc. 0,6 ng/ml","109,36%"
same,Benchtop stability (19 h) Ac. Accuracy (%),"QC conc. 0,6 ng/ml","102,06%"
same,Autosampler stability (24 h) Av. Accuracy (%),QC conc. 24 ng/ml,"113,74%"
same,3x freeze-thaw Av. Accuracy (%),QC conc. 24 ng/ml,"106,45%"
same,Benchtop stability (19 h) Ac. Accuracy (%),QC conc. 24 ng/ml,"112,46%"
same,Autosampler stability (24 h) Av. Accuracy (%),QC conc. 60 ng/ml,"105,87%"
same,3x freeze-thaw Av. Accuracy (%),QC conc. 60 ng/ml,"100,47%"
same,Benchtop stability (19 h) Ac. Accuracy (%),QC conc. 60 ng/ml,"105,11%"
CC(C)NC(=O)NS(=O)(=O)c1cnccc1Nc1cccc(CO)c1 [OH-torsemide],Autosampler stability (24 h) Av. Accuracy (%),QC conc. 1 ng/ml,"109,17%"
same,3x freeze-thaw Av. Accuracy (%),QC conc. 1 ng/ml,"105,26%"
same,Benchtop stability (19 h) Ac. Accuracy (%),QC conc. 1 ng/ml,"106,91%"
same,Autosampler stability (24 h) Av. Accuracy (%),QC conc. 2 ng/ml,"113,11%"
same,3x freeze-thaw Av. Accuracy (%),QC conc. 2 ng/ml,"105,85%"
same,Benchtop stability (19 h) Ac. Accuracy (%),QC conc. 2 ng/ml,"107,98%"
same,Autosampler stability (24 h) Av. Accuracy (%),QC conc. 6 ng/ml,"109,32%"
same,3x freeze-thaw Av. Accuracy (%),QC conc. 6 ng/ml,"107,78%"
same,Benchtop stability (19 h) Ac. Accuracy (%),QC conc. 6 ng/ml,"111,3%"
same,Autosampler stability (24 h) Av. Accuracy (%),QC conc. 240 ng/ml,"108,82%"
same,3x freeze-thaw Av. Accuracy (%),QC conc. 240 ng/ml,"104,11%"
same,Benchtop stability (19 h) Ac. Accuracy (%),QC conc. 240 ng/ml,"106,75%"
same,Autosampler stability (24 h) Av. Accuracy (%),QC conc. 600 ng/ml,"99,55%"
same,3x freeze-thaw Av. Accuracy (%),QC conc. 600 ng/ml,"96,28%"
same,Benchtop stability (19 h) Ac. Accuracy (%),QC conc. 600 ng/ml,"99,14%"
"Cn1c(=O)c2c(ncn2C)n(C)c1=O [caffeine, reference compound]",3x freeze-thaw Av. Accuracy (%),QC conc. 10 ng/ml,"107,62%"
same,3x freeze-thaw Av. Accuracy (%),QC conc. 30 ng/ml,"107,18%"
same,3x freeze-thaw Av. Accuracy (%),QC conc. 1200 ng/ml,"105,12%"
same,3x freeze-thaw Av. Accuracy (%),QC conc. 3000 ng/ml,"97,54%"
"Cc1ncc2n1-c1ccc(Cl)cc1C(c1ccccc1F)=NC2 [midazolam, reference compound]",Autosampler stability (24 h) Av. Accuracy (%),"QC conc. 0,1 ng/ml","107,46%"
same,3x freeze-thaw Av. Accuracy (%),"QC conc. 0,1 ng/ml","104,96%"
same,Benchtop stability (19 h) Ac. Accuracy (%),"QC conc. 0,1 ng/ml","106,81%"
same,Autosampler stability (24 h) Av. Accuracy (%),"QC conc. 0,3 ng/ml","104,87%"
same,3x freeze-thaw Av. Accuracy (%),"QC conc. 0,3 ng/ml","98,61%"
same,Benchtop stability (19 h) Ac. Accuracy (%),"QC conc. 0,3 ng/ml","104,39%"
same,Autosampler stability (24 h) Av. Accuracy (%),"QC conc. 0,05 ng/ml","103,51%"
same,3x freeze-thaw Av. Accuracy (%),"QC conc. 0,05 ng/ml","109,93%"
same,Benchtop stability (19 h) Ac. Accuracy (%),"QC conc. 0,05 ng/ml","89,44%"
same,Autosampler stability (24 h) Av. Accuracy (%),QC conc. 12 ng/ml,"110,93%"
same,3x freeze-thaw Av. Accuracy (%),QC conc. 12 ng/ml,"103,85%"
same,Benchtop stability (19 h) Ac. Accuracy (%),QC conc. 12 ng/ml,"109,38%"
same,Autosampler stability (24 h) Av. Accuracy (%),QC conc. 30 ng/ml,"99,76%"
same,3x freeze-thaw Av. Accuracy (%),QC conc. 30 ng/ml,"97,41%"
same,Benchtop stability (19 h) Ac. Accuracy (%),QC conc. 30 ng/ml,"99,8%"
